“Also recorded” adds a separate entry of the source.
What was measured:
cannabinoid receptor CB2 [1] = target: T1, cannabinoid receptor CB2 (Homo sapiens, UniProt P34972); assay: [35S]GTP nucleotide exchange (GEF) G protein activation assay on CB2 in cell membrane preparations; format: biochemical; design: purchased PerkinElmer; Millipore ChemiScreen; Applied Cell Sciences; Signal Screen (Sf9); E. coli BL21 (DE3) and Expi293F membranes were made in house; ES111-M400UA; A318; 6110130; host or cells: CHO, CHO-K1, Sf9, Expi293F, Expi293F GNTI-, E. coli BL21 (DE3)
From the text: To better understand the reason for these discrepancies, we assessed the activation of CB2 receptor by the in vitro G protein activation assay that measures the rates of nucleotide exchange on the Gα subunit of G protein (GEF assay) as described previously[33],[34]. The assay reports the rates of formation of the complex of [^35S]-GTPγS, a homolog of GTP, with the Gα subunit of G protein. Typical assay conditions require small (nanogram) quantities of the receptor protein either in cell membranes or reconstituted into lipid bilayers. The readout of the assay is the amount of the non-hydrolysable complex of Gα with [^35S]-GTPγS which, under selected experimental conditions, is proportional to the amount of activated receptor in the assay.
Figure 3 GEF of CB2 expressed in: (a) E. coli membranes and (b) CHO membranes (Millipore EMD). 2 μg of total protein per assay. Each point represents an average of four independent measurements (n = 4). Ligands were added at a concentration of 2 μM to ensure saturation of the receptor, and G protein was added as described in “Methods”. The dotted line indicates the rates of activation of G protein in the absence of a ligand. The rates of activation with […] are set to 100%, and rates of activation in the presence of SR-144,528 to 0%.
Figure 4 GEF on CB2 expressed in different cell lines. An amount of 2 μg of membrane protein per assay was used. Each data points represents an average of four independent measurements (n = 4) with error rates indicated by the bars. 100% represents full activation in the presence of 2 μM of CP-55,940, and 0%–with 2 μM SR-144,528.
(§1) The subunits of G protein were expressed and purified as described previously. The nucleotide exchange assay was performed as previously described.

hCB2 = target: T2, hCB2 (Homo sapiens, UniProt P34972); assay: Radioligand ([3H]CP-55,940) displacement binding in hCB2-CHO-K1 cell membranes
T2 construct: purchased PerkinElmer ES111-M400UA; host or cells: CHO-K1 cells stably transfected
Experimental: The assay was performed as described previously. […] Plasma membranes were from cultured CHO-K1 cells stably transfected with human CB2R (Perkin Elmer). Two microgram plasma membrane protein was used in a 1 mL reaction mixture. Ki values were derived by computerized curve fitting and using the Cheng-Prusoff equation to account for the affinity of the radioligand, using the GraphPad Prism 8 program (GraphPad Prism Software Inc.).

cannabinoid receptor CB2 [2] = target: T1, cannabinoid receptor CB2; assay: GEF G protein activation assay on purified CB2 reconstituted in liposomes; format: biochemical; design: E. coli construct) (cleaved yes); twin-Streptag (N); His10 (C); made in house; host or cells: E. coli BL21 (DE3) and Expi293F GNTI-
From the text: To assess the possible role of post-translational modifications of CB2 on its activation by the MRI ligands, the recombinant CB2 receptor was isolated from two different expression cell lines, E. coli BL21 (DE3)[41] and Expi293F GNTI^-[42]. The protein was purified and reconstituted into lipid bilayers containing 1-palmitoyl-2-oleoyl-glycero-3-phosphocholine (POPC) and, 1-palmitoyl-2-oleoyl-sn-glycero-3-phospho-(1′-rac-glycerol) (POPG) at a molar ratio of 3/1, either supplemented or not supplemented with cholesterol, as described in “Methods”[10],[13]. We reported previously that the presence of phospholipids with a negatively charged headgroup stabilizes CB2 protein in lipid bilayers. Therefore, purified CB2 was reconstituted into POPC/POPG (3/1, mol/mol) liposomes containing 0, 20 and 40 mol% cholesterol (reported as total content of lipids) as described in “Methods”. In one case, the protein purified from E. coli cells was reconstituted into lipids extracted from brain tissue (Avanti Polar Lipids). The ratio of protein-to-lipid in the resulting samples was in the range of 1:850 to1:1100 (mol/mol). The levels of protein, and the density of ligand binding sites for receptor preparations reconstituted in liposomes with different content of cholesterol varied only slightly (Supporting Fig. 5a,b).
Figure 7 Activation of G protein on CB2 receptor reconstituted in liposomes. Liposome composition: 75% POPC, 25% POPG and cholesterol content relative to total phospholipids as indicated, or total lipids extracted from bovine brain, as indicated. Proteins were reconstituted at a protein-to-lipid ratio in the range 1:850 to 1:1100 mol/mol. (a–d) CB2 purified from E. coli cells. (e,f) CB2 purified from Expi293F GNTI^- cells. Average values of four independent measurements are plotted (n = 4). Dotted lines represent the rates of activation of G protein in the absence of a ligand.
Reconstitution of the purified CB2 into liposomes was performed as described earlier. Briefly, 200 μg of the purified protein was mixed with 2 mg of lipid mixture (POPC:POPG, 3:1, mol/mol without or with addition or 20 mol% or 40 mol% of cholesterol) solubilized in 1% CHAPS at a concentration of 5 mg lipid/mL, and incubated on ice for 30 min. The detergents were then removed on 4 mL Detergent Removal spin column (Pierce), according to manufacturer’s instructions. The combined filtrate containing proteoliposomes was collected, and aliquots frozen in liquid nitrogen. Frozen liposomes were stored at − 80 °C until further use. Content of protein in proteoliposomes was determined by BioRad DC assay.
as §1

T1 sequence (P34972 whole entry): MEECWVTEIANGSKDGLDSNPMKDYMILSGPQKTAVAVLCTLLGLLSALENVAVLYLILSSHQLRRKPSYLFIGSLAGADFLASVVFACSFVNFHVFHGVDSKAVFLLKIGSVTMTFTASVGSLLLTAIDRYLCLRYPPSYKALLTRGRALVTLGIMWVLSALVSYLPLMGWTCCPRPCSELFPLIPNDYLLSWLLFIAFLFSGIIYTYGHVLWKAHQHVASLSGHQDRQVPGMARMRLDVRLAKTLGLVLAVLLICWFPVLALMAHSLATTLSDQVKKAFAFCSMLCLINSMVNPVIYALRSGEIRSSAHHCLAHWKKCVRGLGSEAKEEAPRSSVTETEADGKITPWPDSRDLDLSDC
T2 sequence (P34972 whole entry): as above

Structure (SMILES): CC(=O)OCCn1c(=NC(=O)C2C(C)(C)C2(C)C)sc2cc(Cl)ccc21 [MRI-2646, 2-(6-Chloro-2-((2,2,3,3-tetramethylcyclopropane-1-carbonyl)imino)benzo[d]thiazol-3(2H)-yl)ethyl acetate]
- Pharmacological category in GEF assay (cannabinoid receptor CB2 [1]; CB2 in CHO membranes (EMD Millipore), ligand 2 μM): partial inverse agonist
- Pharmacological category in GEF assay (cannabinoid receptor CB2 [1]; CB2 in CHO membranes (PerkinElmer)): neutral antagonist
- Pharmacological category in GEF assay (cannabinoid receptor CB2 [1]; CB2 in CHO-K1 membranes (Applied Cell Sciences)): partial inverse agonist
- Pharmacological category in GEF assay (cannabinoid receptor CB2 [1]; CB2 in E. coli BL21 (DE3) membranes (untreated), ligand 2 μM): partial agonist; also recorded: agonistic effects; also recorded: weaker agonist
- Pharmacological category in GEF assay (cannabinoid receptor CB2 [1]; CB2 in Expi293F GNTI- membranes): partial inverse agonist
- Pharmacological category in GEF assay (cannabinoid receptor CB2 [1]; CB2 in Expi293F membranes): partial inverse agonist
- Pharmacological category in GEF assay (cannabinoid receptor CB2 [1]; CB2 in baculovirus infected insect Sf9 cell membranes): partial agonist
- Pharmacological category in GEF assay (cannabinoid receptor CB2 [1]; CHO membranes (PerkinElmer), with and without exogenous G protein): neutral antagonist
- Pharmacological category in GEF assay (cannabinoid receptor CB2 [1]; E. coli membranes treated with 20 mM MβCD/cholesterol): neutral antagonist
- Pharmacological category in GEF assay (cannabinoid receptor CB2 [1]; Expi293F membranes treated with 20 mM MβCD (cholesterol depleted)): partial agonist
- Pharmacological category in GEF assay (cannabinoid receptor CB2 [1]; Expi293F membranes, with and without exogenous G protein): inverse agonist
- Pharmacological category in GEF assay (cannabinoid receptor CB2 [1]; Sf9 membranes, with and without exogenous G protein): partial agonist
- Pharmacological category on CB2 (cannabinoid receptor CB2 [1]; bacterial- and insect-cell membranes): partial agonist
- Pharmacological category on CB2 (cannabinoid receptor CB2 [1]; cholesterol-containing membranes): neutral antagonist or a partial inverse agonist; also recorded: either as an inverse agonist or a neutral antagonist
- Pharmacological category on CB2 (cannabinoid receptor CB2 [1]; mammalian cell membranes): inverse agonist or neutral antagonist
- Pharmacological category on CB2 (cannabinoid receptor CB2 [1]; membranes devoid of cholesterol): partial agonist
- Ki (hCB2): 0.079 ± 0.011 nM
- Pharmacological category in GEF assay (cannabinoid receptor CB2 [2]; CB2 from E. coli, POPC/POPG liposomes devoid of cholesterol): partial agonist
- Pharmacological category in GEF assay (cannabinoid receptor CB2 [2]; CB2 from E. coli, liposomes with 20% or 40% cholesterol or brain lipid extract): partial inverse agonist
- Pharmacological category in GEF assay (cannabinoid receptor CB2 [2]; CB2 from Expi293F GNTI- (HEK) cells, liposomes with 40% of cholesterol): partial inverse agonist
- Pharmacological category in GEF assay (cannabinoid receptor CB2 [2]; CB2 from Expi293F GNTI- cells, liposomes without cholesterol): partial agonist

Reference: PMC7881127, “Cholesterol as a modulator of cannabinoid receptor CB2 signaling” (Scientific Reports, 2021)
